These results are taken from PubChem BioAssay (NCI).

The structures appear in SMILES notation.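 Dose response: 5 concentrations. Exposure: 48 h. Format: 96-well plates. Endpoint: linear interpolation; highest concentration if not reached. GI50: concentration for 50% inhibition of growth. TGI is the concentration that stops growth completely.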 Where only a bound is given, the exact number is not on record here.

The first experiment concerns SR leukemia. Briefly: NCI-60 cell line screen, 48 h.
On to `CC1CCC2(C(=O)O)CCC3(C)C(=CCC4C5(C)CC(O)C(O)C(C)(CO)C5C(O)CC43C)C2C1C` (stereo not drawn), for which the TGI was above 63.1 µM.

In a further experiment the test system is HCC-2998 colon. Briefly: NCI-60 cell line screen, 48 h.
On to `Cc1nc2cccc([N+](=O)[O-])c2c(NCCCN(C)C)c1C`, for which the TGI is above 54.3 µM.

Consider `NCC(=O)NS(=O)(=O)OC[C@H]1O[C@@H](n2cnc3c(N)ncnc32)[C@H](O)[C@@H]1O`, for which the GI50 was 2.04 µM and the TGI came to 4.34 µM.

`Cc1c(C(=O)N/N=C/c2ccc(Cl)cc2)nnn1-c1ccnc2c(C(F)(F)F)cccc12`: the GI50 was 9.54 µM and the TGI was 53.1 µM.

In the case of `Cc1nn(CN2CCN(C)CC2)c(=S)n1/N=C/c1cccc2ccccc12`, the GI50 is 20.9 µM and the TGI was found to be 39 µM.

Turning to `N#C/C(=C1C=C/C(=N/O)C(Br)=C/1)c1ccccc1`, the GI50 is 5.02 µM and the TGI was determined as 20.7 µM.

Take `CN(C)CCNc1cc(-c2ccccc2)nc2ccccc12`: the GI50 was 10.2 µM and the TGI came out at 25.1 µM.

`COc1cccc(/C=N/NC(=O)c2ccccc2Nc2ccnc(C(F)(F)F)c2)c1O`: the GI50 was 0.29 µM and the TGI was 33.5 µM.

As for `CN1CCN(Cc2ccc(NC(=O)c3cncc(C#Cc4cnc(N)c5ccc(C#N)cc45)c3)cc2C(F)(F)F)CC1`, the GI50 was 0.901 µM and the TGI was determined as 11.1 µM.

Regarding `CCOC(=O)CCc1cc(=O)oc2cc(O)cc(O)c12`, the TGI is above 100 µM.

Regarding `COC(=O)c1cc2c3ccccc3[nH]c2c2ncccc12`, the GI50 was 73.8 µM and the TGI was above 100 µM.

Take `CNC(=O)OCc1c(COC(=O)NC)c(-c2ccc(Cl)c(Cl)c2)n2c1SCC2`: the TGI turned out to be 30 µM.

For `COc1cc(OC)cc(-c2ccc(-c3ccc(C(=N)N)o3)o2)c1`, the GI50 is 2.05 µM and the TGI is 3.94 µM.

In the case of `C[C@]12CC[C@H](O)CC1=CC[C@@H]1[C@@H]2CC[C@]2(C)C(c3cccnc3)=CC[C@@H]12`, the GI50 is above 100 µM and the TGI was above 100 µM.

With `Cc1ccc2c(c1)C(=O)/C(=C/c1ncc([N+](=O)[O-])n1C)O2`, the GI50 is 2.29 µM and the TGI was determined as 5.4 µM.

Regarding `CC1OC(n2cc(F)c(=O)[nH]c2=O)CCC1O` (stereo not drawn), the TGI is above 100 µM.

Consider `O=C(NCCOCCOCCNc1cccc2c1C(=O)N(C1CCCNC1=O)C2=O)c1cc2c(o1)C(=O)c1ccccc1C2=O` (stereo not drawn), for which the GI50 was 2.01 µM and the TGI stood at 4.02 µM.

On to `CC1CCC2(C(=O)O)CCC3(C)C(=CCC4C5(C)CC(O)C(O)C(C)(CO)C5C(O)CC43C)C2C1C` (stereo not drawn), for which the TGI was above 100 µM.

In a further experiment the test system is 786-0 renal. Briefly: NCI-60 cell line screen, 48 h.
In turn, `Cc1nc2cccc([N+](=O)[O-])c2c(NCCCN(C)C)c1C` returned a TGI above 100 µM.

Take `NCC(=O)NS(=O)(=O)OC[C@H]1O[C@@H](n2cnc3c(N)ncnc32)[C@H](O)[C@@H]1O`: the GI50 is 1.77 µM and the TGI stood at 3.47 µM.

Take `Cc1c(C(=O)N/N=C/c2ccc(Cl)cc2)nnn1-c1ccnc2c(C(F)(F)F)cccc12`: the GI50 is 18.5 µM and the TGI turned out to be 37.8 µM.

Consider `Cc1nn(CN2CCN(C)CC2)c(=S)n1/N=C/c1cccc2ccccc12`, for which the GI50 was 21.3 µM and the TGI stood at 44.6 µM.

Turning to `N#C/C(=C1C=C/C(=N/O)C(Br)=C/1)c1ccccc1`, the GI50 was 3.19 µM and the TGI is 14.7 µM.

Consider `CN(C)CCNc1cc(-c2ccccc2)nc2ccccc12`, for which the GI50 is 6.87 µM and the TGI was found to be 23.8 µM.

For `COc1cccc(/C=N/NC(=O)c2ccccc2Nc2ccnc(C(F)(F)F)c2)c1O`, the GI50 was 0.552 µM and the TGI was above 37.5 µM.

On to `CN1CCN(Cc2ccc(NC(=O)c3cncc(C#Cc4cnc(N)c5ccc(C#N)cc45)c3)cc2C(F)(F)F)CC1`, for which the GI50 is 0.111 µM and the TGI turned out to be 1.01 µM.

In the case of `CCOC(=O)CCc1cc(=O)oc2cc(O)cc(O)c12`, the TGI was above 100 µM.

Regarding `COC(=O)c1cc2c3ccccc3[nH]c2c2ncccc12`, the GI50 is 61.2 µM and the TGI was above 100 µM.

Turning to `CNC(=O)OCc1c(COC(=O)NC)c(-c2ccc(Cl)c(Cl)c2)n2c1SCC2`, the TGI was above 46.8 µM.

In the case of `COc1cc(OC)cc(-c2ccc(-c3ccc(C(=N)N)o3)o2)c1`, the GI50 is 4.15 µM and the TGI was determined as 15.6 µM.

Consider `C[C@]12CC[C@H](O)CC1=CC[C@@H]1[C@@H]2CC[C@]2(C)C(c3cccnc3)=CC[C@@H]12`, for which the GI50 was 5.18 µM and the TGI is above 100 µM.

Turning to `Cc1ccc2c(c1)C(=O)/C(=C/c1ncc([N+](=O)[O-])n1C)O2`, the GI50 is 2.16 µM and the TGI was found to be 5.31 µM.

With `CC1OC(n2cc(F)c(=O)[nH]c2=O)CCC1O` (stereo not drawn), the TGI is above 100 µM.

Regarding `O=C(NCCOCCOCCNc1cccc2c1C(=O)N(C1CCCNC1=O)C2=O)c1cc2c(o1)C(=O)c1ccccc1C2=O` (stereo not drawn), the GI50 was 3.26 µM and the TGI turned out to be 10.9 µM.

Molecule `CC1CCC2(C(=O)O)CCC3(C)C(=CCC4C5(C)CC(O)C(O)C(C)(CO)C5C(O)CC43C)C2C1C` (stereo not drawn) had a TGI of 20 µM.

The subject of another experiment is UO-31 renal. Briefly: NCI-60 cell line screen, 48 h.
On to `Cc1nc2cccc([N+](=O)[O-])c2c(NCCCN(C)C)c1C`, for which the TGI was above 100 µM.

For the molecule `NCC(=O)NS(=O)(=O)OC[C@H]1O[C@@H](n2cnc3c(N)ncnc32)[C@H](O)[C@@H]1O`, the GI50 was 1.71 µM and the TGI was determined as 3.25 µM.

For `Cc1c(C(=O)N/N=C/c2ccc(Cl)cc2)nnn1-c1ccnc2c(C(F)(F)F)cccc12`, the GI50 is 13 µM and the TGI came out at 27.8 µM.

As for `Cc1nn(CN2CCN(C)CC2)c(=S)n1/N=C/c1cccc2ccccc12`, the GI50 was 22 µM and the TGI worked out at 54.4 µM.

Take `N#C/C(=C1C=C/C(=N/O)C(Br)=C/1)c1ccccc1`: the GI50 is 2.04 µM and the TGI was found to be 15.4 µM.

`CN(C)CCNc1cc(-c2ccccc2)nc2ccccc12`: the GI50 was 4.01 µM and the TGI came to 26.9 µM.

Consider `COc1cccc(/C=N/NC(=O)c2ccccc2Nc2ccnc(C(F)(F)F)c2)c1O`, for which the GI50 was 0.303 µM.

Take `CN1CCN(Cc2ccc(NC(=O)c3cncc(C#Cc4cnc(N)c5ccc(C#N)cc45)c3)cc2C(F)(F)F)CC1`: the GI50 was 0.0809 µM and the TGI came to 0.565 µM.
